Assay results published in patent publication US11766044B2, “Method for controlling PPO resistant weeds” (BASF SE, priority 2016, dated 2023).

System: sensitive (w.7) and resistant weeds (w.8, w.9)
Format: in vivo, Amaranthus tuberculatus
Settings: table 3, 1 and 2 g/ha

## CCOC(=O)COc1ncccc1Oc1cc(-n2c(=O)cc(C(F)(F)F)n(C)c2=O)c(F)cc1Cl [compound (I).1]
  activity on both sensitive and resistant weeds: very good activity
